Among the data in US20080242663A1, “NOVEL PYRIMIDINE DERIVATIVES 698” (ASTRAZENECA AB, priority 2007, published 2008) are IC50 values, retold here.

For orientation: pIC50 means the negative decadic logarithm of the IC50, by convention in mol/L.

pIC50: −log10 of the molar value.

The target of this assay is T1, recombinant EphB4 (Homo sapiens, UniProt P54760).
T1 construct: amino acids 563-987; Swiss-Prot Acc; No. P54760; purchased ProQinase GmbH 0178-0000-3
T1 sequence (P54760 563-987): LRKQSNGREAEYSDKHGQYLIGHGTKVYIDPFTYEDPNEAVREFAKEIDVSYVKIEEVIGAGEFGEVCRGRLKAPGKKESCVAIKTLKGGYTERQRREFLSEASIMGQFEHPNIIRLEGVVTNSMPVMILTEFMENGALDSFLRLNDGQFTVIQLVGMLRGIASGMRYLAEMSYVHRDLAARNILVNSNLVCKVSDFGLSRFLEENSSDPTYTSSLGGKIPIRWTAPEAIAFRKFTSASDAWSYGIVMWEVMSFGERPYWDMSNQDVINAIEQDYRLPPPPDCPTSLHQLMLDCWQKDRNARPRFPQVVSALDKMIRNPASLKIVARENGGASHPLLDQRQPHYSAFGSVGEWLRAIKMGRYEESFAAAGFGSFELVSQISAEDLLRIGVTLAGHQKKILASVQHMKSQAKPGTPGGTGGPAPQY
The assay is described as follows: In vitro EphB4 enzyme assay (Alphascreen). The format is biochemical. The procedure:
This assay detects inhibitors of EphB4-mediated phosphorylation of a polypeptide substrate using Alphascreen™ luminescence detection technology. Briefly, recombinant EphB4 was incubated with a biotinylated-polypeptide substrate (biotin-poly-GAT) in presence of magnesium-ATP. The reaction was stopped by addition of EDTA, together with streptavidin-coated donor beads which bind the biotin-substrate containing any phosphorylated tyrosine residues. Anti-phosphotyrosine antibodies present on acceptor beads bind to phosphorylated substrate, thus bringing the donor & acceptor beads into close proximity. Subsequent excitation of the donor beads at 680 nm generated singlet oxygen species that interact with a chemiluminescer on the acceptor beads, leading to light emission at 520-620 nm. The signal intensity is directly proportional to the level of substrate phosphorylation and thus inhibition is measured by a decrease in signal.
Assay plates were then incubated at room temperature for 1 hr. […] The plates were sealed under natural lighting conditions, wrapped in aluminium foil and incubated in the dark for a further 20 hrs.
The resulting assay signal was determined on the Perkin Elmer EnVision plate reader. The minimum value was subtracted from all values, and the signal plotted against compound concentration to generate IC50 data.
`CN(c1ccnc(Nc2cc(N3CCOCC3)cc(N3CCOCC3)c2)n1)c1ccc(F)c(Cl)c1F` [Example 2.1, N′-(3-chloro-2,4-difluoro-phenyl)-N-(3,5-dimorpholin-4-ylphenyl)-N′-methyl-pyrimidine-2,4-diamine]: the pIC50 was 6.08.
Consider `CC(=O)c1ccc(C)c(N(C)c2ccnc(Nc3cc(N4CCOCC4)cc(N4CCOCC4)c3)n2)c1` [Example 25.5, 1-(3-((2-(3,5-dimorpholinophenylamino)pyrimidin-4-yl)(methyl)amino)-4-methylphenyl)ethanone], for which the pIC50 is 6.90.
For the compound `CN1CCN(c2cc(Nc3nccc(N(C)c4ccc(F)c(Cl)c4F)n3)cc(S(C)(=O)=O)c2)CC1` [Example 3, N′-(3-chloro-2,4-difluoro-phenyl)-N′-methyl-N-[3-(4-methylpiperazin-1-yl)-5-methylsulfonyl-phenyl]pyrimidine-2,4-diamine], the pIC50 is 7.19.
As for `COc1ccc(N(C)c2ccnc(Nc3cc(N4CCOCC4)cc(N4CCOCC4)c3)n2)cc1OC` [Example 15.3, N′-(3,4-dimethoxyphenyl)-N-(3,5-dimorpholin-4-ylphenyl)-N′-methyl-pyrimidine-2,4-diamine], the pIC50 is 6.00.
Then `Cc1ccc(CO)cc1N(C)c1ccnc(Nc2cc(N3CCOCC3)cc(N3CC[C@@H](O)C3)c2)n1` [Example 7.10, (3R)-1-[3-[[4-[[5-(hydroxymethyl)-2-methyl-phenyl]-methyl-amino]pyrimidin-2-yl]amino]-5-morpholin-4-yl-phenyl]pyrrolidin-3-ol], with 7.87.
As to `COc1ccc(C)c(N(C)c2ccnc(Nc3cc(N4CCOCC4)cc(N4CCC(O)CC4)c3)n2)c1` [Example 12.5, 1-(3-(4-((5-methoxy-2-methylphenyl)(methyl)amino)pyrim-idin-2-ylamino)-5-morpholinophenyl)piperidin-4-ol], the pIC50 is 8.53.
For `COCCOc1cc(Nc2nccc(N(C)c3ccc(F)c(Cl)c3F)n2)cc(N2CCOCC2)c1` [Example 2.9, N′-(3-chloro-2,4-difluoro-phenyl)-N-[3-(2-methoxyethoxy)-5-morpholin-4-yl-phenyl]-N′-methyl-pyrimidine-2,4-diamine], the pIC50 is 6.11.
Then `CN(c1cccc(Cl)c1)c1ccnc(Nc2cc(C(=O)N3CCOCC3)cc(N3CCOCC3)c2)n1` [Example 19.10, [3-[[4-[(3-chlorophenyl)-methyl-amino]pyrimidin-2-yl]amino]-5-morpholin-4-yl-phenyl]-morpholin-4-yl-methanone], with 6.18; and `C[C@@H](CO)N(C)C(=O)c1cc(Nc2nccc(N(C)c3cccc(Cl)c3)n2)cc(N2CCOCC2)c1` [Example 19.6], with 6.47; and `CN(c1ccnc(Nc2cc(N3CCOCC3)cc(N3CCOCC3)c2)n1)c1cc(CO)ccc1Cl` [Example 10.19, [4-chloro-3-[[2-[(3,5-dimorpholin-4-ylphenyl)amino]pyrimidin-4-yl]-methyl-amino]phenyl]methanol], with 6.82.
In the case of `Cc1ccc(CO)cc1N(CC(C)C)c1ccnc(Nc2cc(N3CCOCC3)cc(S(C)(=O)=O)c2)n1` [Example 8.3, [4-methyl-3-[2-methylpropyl-[2-[(3-methylsulfonyl-5-morpholin-4-yl-phenyl)amino]pyrimidin-4-yl]amino]phenyl]methanol], the pIC50 was 6.04.
Take `CN(c1cccc(Cl)c1)c1ccnc(Nc2cc(C(=O)N3CCC(O)CC3)cc(N3CCOCC3)c2)n1` [Example 19.12, [3-[[4-[(3-chlorophenyl)-methyl-amino]pyrimidin-2-yl]amino]-5-morpholin-4-yl-phenyl]-(4-hydroxy-1-piperidyl) methanone]: the pIC50 is 6.63.
As for `Cc1ccc(CO)cc1N(C)c1ccnc(Nc2cc(C(=O)NCC(C)C)cc(N3CCOCC3)c2)n1` [Example 18.3, 3-[[4-[[5-(hydroxymethyl)-2-methyl-phenyl]-methyl-amino]pyrimidin-2-yl]amino]-N-(2-methylpropyl)-5-morpholin-4-yl-benzamide], the pIC50 was 6.61.
Regarding `CN(c1ccnc(Nc2cc(N3CCOCC3)cc(N3CCOCC3)c2)n1)c1ccc(F)cc1F` [Example 10.14, N′-(2,4-difluorophenyl)-N-(3,5-dimorpholin-4-ylphenyl)-N′-methyl-pyrimidine-2,4-diamine], the pIC50 is 6.42.
With `COc1ccc(OC)c(N(C)c2ccnc(Nc3cc(N4CCOCC4)cc(N4CCOCC4)c3)n2)c1` [Example 15.4, N′-(2,5-dimethoxyphenyl)-N-(3,5-dimorpholin-4-ylphenyl)-N′-methyl-pyrimidine-2,4-diamine], the pIC50 is 6.17.
With `COCCN(C)C(=O)c1cc(Nc2nccc(N(C)c3cc(CO)ccc3C)n2)cc(N2CCOCC2)c1` [Example 18.7, 3-[[4-[[5-(hydroxymethyl)-2-methyl-phenyl]-methyl-amino]pyrimidin-2-yl]amino]-N-(2-methoxyethyl)-N-methyl-5-morpholin-4-yl-benzamide], the pIC50 was 6.93.
Consider `Cc1ccc(CO)cc1N(C)c1ccnc(Nc2cc(C(=O)N(C)C(C)C)cc(N3CCOCC3)c2)n1` [Example 18.6, 3-[[4-[[5-(hydroxymethyl)-2-methyl-phenyl]-methyl-amino]pyrimidin-2-yl]amino]-N-methyl-5-morpholin-4-yl-N-propan-2-yl-benzamide], for which the pIC50 is 6.47.
Then `COc1cc(Nc2nccc(N(C)c3ccc(F)c(Cl)c3F)n2)cc(N2CCOCC2)c1` [Example 2.4, N′-(3-chloro-2,4-difluoro-phenyl)-N-(3-methoxy-5-morpholin-4-yl-phenyl)-N′-methyl-pyrimidine-2,4-diamine], with 6.46; and `Cc1ccc(CO)cc1N(C)c1ccnc(Nc2cc(OC(C)C)cc(N3CCOCC3)c2)n1` [Example 17.2, [4-methyl-3-[methyl-[2-[(3-morpholin-4-yl-5-propan-2-yloxy-phenyl)amino]pyrimidin-4-yl]amino]phenyl]methanol], with 6.77; and `CN(c1ccnc(Nc2cc(N3CCOCC3)cc(N3CCOCC3)c2)n1)c1cccc(Cl)c1F` [Example 15.15, N′-(3-chloro-2-fluoro-phenyl)-N-(3,5-dimorpholin-4-ylphenyl)-N′-methyl-pyrimidine-2,4-diamine], with 6.16.
On to `CSc1cccc(N(C)c2ccnc(Nc3cc(N4CCOCC4)cc(N4CCOCC4)c3)n2)c1` [Example 10.7, N-(3,5-dimorpholin-4-ylphenyl)-N′-methyl-N′-(3-methylsulfanylphenyl)pyrimidine-2,4-diamine], for which the pIC50 was 6.20.
As for `CC(C)N(C)C(=O)c1cc(Nc2nccc(N(C)c3cccc(Cl)c3)n2)cc(N2CCOCC2)c1` [Example 19.8], the figure is 5.84.
`CN1CCN(c2cc(Nc3nccc(N(C)c4cccc(Cl)c4)n3)cc(N3CCOCC3)c2)CC1` [Example 24, N4-(3-chlorophenyl)-N4-methyl-N2-[3-(4-methylpiperazin-1-yl)-5-morpholin-4-ylphenyl]pyrimidine-2,4-diamine]: the pIC50 is 9.24.
Then `COc1ccc(C)c(N(C)c2ccnc(Nc3cc(C(=O)N(C)C)cc(N4CCOCC4)c3)n2)c1` [Example 12.3, 3-[[4-[(5-methoxy-2-methyl-phenyl)-methyl-amino]pyrimidin-2-yl]amino]-N,N-dimethyl-5-morpholin-4-yl-benzamide], with 6.34.
As to `CN(c1cccc(Cl)c1)c1ccnc(Nc2cc(C(=O)N3CCCC3)cc(N3CCOCC3)c2)n1` [Example 19.9], the pIC50 is 6.12.
On to `CC(=O)N1CCN(c2cc(Nc3nccc(N(C)c4ccc(F)c(Cl)c4F)n3)cc(S(C)(=O)=O)c2)CC1` [Example 2.12, 1-[4-[3-[[4-[(3-chloro-2,4-difluoro-phenyl)-methyl-amino]pyrimidin-2-yl]amino]-5-methylsulfonyl-phenyl]piperazin-1-yl] ethanone], for which the pIC50 was 6.72.
`Cc1ccc(CO)cc1N(C)c1ccnc(Nc2cc(OC3CCC3)cc(N3CCOCC3)c2)n1` [Example 17.5, [3-[[2-[(3-cyclobutyloxy-5-morpholin-4-yl-phenyl)amino]pyrimidin-4-yl]-methyl-amino]-4-methyl-phenyl]methanol]: the pIC50 was 6.02.
With `CN(C)C(=O)c1cc(Nc2nccc(N(C)c3ccc(F)c(Cl)c3F)n2)cc(N2CCOCC2)c1` [Example 2.8, 3-[[4-[(3-chloro-2,4-difluoro-phenyl)-methyl-amino]pyrimidin-2-yl]amino]-N,N-dimethyl-5-morpholin-4-yl-benzamide], the pIC50 is 6.47.
`CN(c1ccnc(Nc2cc(N3CCN(CCO)CC3)cc(S(C)(=O)=O)c2)n1)c1ccc(F)c(Cl)c1F` [Example 2.13, 2-[4-[3-[[4-[(3-chloro-2,4-difluoro-phenyl)-methyl-amino]pyrimidin-2-yl]amino]-5-methylsulfonyl-phenyl]piperazin-1-yl] ethanol]: the pIC50 is 7.16.
